Results on 2 compounds are retold here after US20230390228A1, “TREATMENT METHODS USING GHB” (Jazz Pharmaceuticals Ireland Limited, priority 2020, published 2023).

The test system of one test is narcolepsy. Particulars: in vivo; cited from earlier work.
Test [1] addresses GABA-ketoglutarate transaminase (Homo sapiens, UniProt P80404). Particulars: cited from earlier work.
Another test concerns brain. Particulars: in vivo; cited from earlier work.
The subject of test [2] is patients with fibromyalgia. Put plainly: Randomized, double-blind, placebo-controlled fibromyalgia study (Example 1), analysed by baseline slow wave sleep (Example 2). Type of test: in vivo, human. The following applies: for response to oxybate (dose dependence) / change from baseline in Fibromyalgia Impact Questionnaire (FIQ) / change from baseline in pain visual analog scale (PVAS): FIG. 1; for change from baseline in Fibromyalgia Impact Questionnaire (FIQ) / change from baseline in pain visual analog scale (PVAS): Xyrem 4.5 g or 6 g/night vs placebo, 8 weeks. The source says: This study was a randomized, double-blind, placebo-controlled, parallel group study in subjects diagnosed with fibromyalgia.
The ACR criteria included: presence of widespread pain for more than 3 months in all 4 quadrants of the body as well as along the spine and the elicitation of pain at 11 or more out of 18 anatomically defined tender points upon palpation with a force of 4 kg.
Subjects underwent screening assessments. Subjects who met the eligibility criteria underwent a drug withdrawal and washout period during which time pain medications and any treatment for fibromyalgia were gradually withdrawn. At the end of the 2-week baseline assessment period, subjects who continued to meet inclusion/exclusion criteria and who reported an average pain score above 4 (on a visual analog scale [VAS] of 0 to 10) during the last week of the baseline period were randomized to 1 of 3 treatment groups: Xyrem 4.5 g/night, Xyrem 6 g/night, or placebo (half of the subjects randomized to placebo received placebo matching 4.5 g and the other half received placebo matching 6 g).
Test Product, Dose, Mode of Administration, and Duration of Treatment: • Sodium oxybate 4.5 g, oral solution (9 mL) taken in 2 equally divided doses (4.5 mL added to 2 oz water) each night for 8 weeks. • Sodium oxybate 6 g, oral solution (12 mL) taken in 2 equally divided doses (6 mL added to 2 oz of water) each night for 8 weeks.
Reference Therapy, Dose and Mode of Administration: • Placebo (sodium citrate solution) 4.5 g, oral solution (9 mL) matching volume of Xyrem 4.5 g, taken in 2 equally divided doses (4.5 mL added to 2 oz water) each night. • Placebo (sodium citrate solution) 6 g, oral solution (12 mL) matching volume of Xyrem 6 g, taken in 2 equally divided doses (6 mL added to 2 oz water) each night.
The primary efficacy parameter was a binary composite parameter for the treatment of fibromyalgia syndrome. The proportion of subjects in each treatment group that met all 3 of the following response criteria was compared to assess the efficacy of Xyrem in response to fibromyalgia syndrome. • Pain Severity: as assessed by pain VAS data recorded 3 time a day by the subject in an electronic diary (eDiary). For pain VAS, a response was defined as a reduction in average pain of 20% or greater from baseline to Week 8. • Functionality (Fibromyalgia Impact Questionnaire [FIQ]): Change from baseline to a study visit was assessed. A response was defined as a reduction of 20% or greater in FIQ total score from baseline to Week 8. • Patient Global Impression of Change (PGIc): The subject's perception of the overall improvement in their fibromyalgia symptoms was assessed by means of the PGIc questionnaire completed at the end of study. A response to treatment was defined as a response of “Very much better” or “Much better” on the PGIc.
Severity of Pain: the mean change from baseline to a study visit in pain severity (VAS pain). The proportion of responders for pain, defined as the proportion of subjects who had at least 20% reduction in pain severity from baseline to a study visit.
Fibromyalgia Impact Questionnaire: The mean change from baseline to a study visit in FIQ total score and subscale scores. The proportion of FIQ responders, defined as the proportion of subjects who had at least a 20% reduction in FIQ total score from baseline to a study visit.
Subjective Assessments of Sleep and Fatigue: • Daytime Sleepiness: the mean change from baseline to a study visit in the Epworth Sleepiness Scale (ESS). • Sleep Patterns: the mean change from baseline to a study visit in the Jenkins Scale (JS). • Fatigue: the mean change from baseline to a study visit in the fatigue VAS score. • Functional Outcomes of Sleep Questionnaire (FOSQ): the mean changes from baseline to a study visit in FOSQ total score and subscale scores. […]

Test [3] has as its system narcolepsy patients with cataplexy. Particulars: cited from earlier work.
The mark [4] stands for this setting: patients with less than about 1% slow wave sleep at baseline or screening.
[5] abbreviates: patients with ≥20% slow wave sleep prior to treatment.

Sequence of GABA-ketoglutarate transaminase (P80404 29-500): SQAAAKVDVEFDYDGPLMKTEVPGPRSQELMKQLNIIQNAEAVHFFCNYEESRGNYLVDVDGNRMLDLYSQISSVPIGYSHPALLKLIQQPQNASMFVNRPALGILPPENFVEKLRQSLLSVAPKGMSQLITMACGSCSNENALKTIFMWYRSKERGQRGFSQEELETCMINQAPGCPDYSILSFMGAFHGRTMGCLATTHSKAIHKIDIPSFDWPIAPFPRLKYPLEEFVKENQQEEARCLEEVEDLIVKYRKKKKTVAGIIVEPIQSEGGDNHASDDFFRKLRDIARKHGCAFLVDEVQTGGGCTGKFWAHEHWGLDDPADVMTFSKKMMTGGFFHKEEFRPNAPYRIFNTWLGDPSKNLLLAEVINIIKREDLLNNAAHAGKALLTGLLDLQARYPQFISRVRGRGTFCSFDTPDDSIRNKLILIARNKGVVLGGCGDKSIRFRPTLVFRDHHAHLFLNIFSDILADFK

As for `O=C(O)CCCO` [oxybate, Gamma-hydroxybutyrate], in the test with narcolepsy, the REM latency entry is on record as “decreases”; the REM sleep result is listed as “increases”; the “signs and symptoms of narcolepsy (daytime sleepiness, cataplexy, sleep paralysis, hypnagogic hallucinations)” value is “substantially reduces”; the sleep apnea entry is “reduces”. In addition, the total sleep time entry in the test on narcolepsy is on record as “increases”. Moreover, the “inhibition of GABA-ketoglutarate transaminase” value in test [1] was “inhibition”. For the same compound, in the test with brain, the brain acetylcholine result is “increases”, the brain dopamine result is “increases” and the “glucose utilization in the brain” value is on record as “depression”. Moreover, the “oxybate response (FIQ, Pain VAS, Fatigue VAS, TPC)” value in test [2] (low baseline slow wave sleep (quartile 1), FIG. 3A-3D) is on record as “improved oxybate response”. In test [2] (setting [4]), the “response to oxybate (dose dependence)” value is listed as “dose-dependent response”, the “change from baseline in Fibromyalgia Impact Questionnaire (FIQ)” value is listed as “significant improvements” and the “change from baseline in pain visual analog scale (PVAS)” value is “significant improvements”. In test [2] (setting [5]), the “response to oxybate (dose dependence)” value is reported as “did not exhibit a dose-dependent response”. Moreover, the “change in FIQ from baseline” value in test [2] (slow wave sleep quartile 1 (<13.5 min stage 3/4 sleep at baseline), 4.5 g and 6.0 g Xyrem vs placebo, FIG. 3A) was “significant improvements”. For the same compound, the “change in Fatigue VAS from baseline” value in test [2] (slow wave sleep quartile 1 (<13.5 min stage 3/4 sleep at baseline), 4.5 g and 6.0 g Xyrem vs placebo, FIG. 3C) is “significant improvements”. The “change in Tender Points Count (TPC) from baseline” value in test [2] (slow wave sleep quartile 1 (<13.5 min stage 3/4 sleep at baseline), 4.5 g and 6.0 g Xyrem vs placebo, FIG. 3D) is given as “significant improvements”.
As for `O=C(O)CCCO` [sodium oxybate], in test [3], the “consolidation of REM sleep” value is “increased”, the “duration of slow wave sleep” value was “increased” and the “number of sleep arousals” value was “decreased”. Moreover, in test [2] (setting [5]), the “change from baseline in Fibromyalgia Impact Questionnaire (FIQ)” value is listed as “did not differ significantly” and the “change from baseline in pain visual analog scale (PVAS)” value is reported as “did not differ significantly”.
